# From BindingDB's records for doi:10.1021/jm5002919 (Takeda Pharmaceutical, 2014)
# Molecular target: G-protein coupled receptor 52 (Homo sapiens, UniProt Q9Y2T5)
# Experiment: Agonist activity at human GPR52 expressed in CHO cells assessed as cAMP production after 30 mins by Alphascreen assay
# Sequence of G-protein coupled receptor 52 (Q9Y2T5 whole entry): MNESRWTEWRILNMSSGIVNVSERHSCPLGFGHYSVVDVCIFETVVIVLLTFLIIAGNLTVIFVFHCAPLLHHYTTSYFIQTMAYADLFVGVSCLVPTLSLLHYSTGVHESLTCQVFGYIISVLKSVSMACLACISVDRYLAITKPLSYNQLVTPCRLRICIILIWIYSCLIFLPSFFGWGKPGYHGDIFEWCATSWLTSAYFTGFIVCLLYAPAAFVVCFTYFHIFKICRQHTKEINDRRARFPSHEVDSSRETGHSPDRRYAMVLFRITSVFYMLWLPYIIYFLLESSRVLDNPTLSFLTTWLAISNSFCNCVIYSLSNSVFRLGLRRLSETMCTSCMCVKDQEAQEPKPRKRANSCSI
smiles,measurement,value
COc1ccc(-c2ccnc(NCCc3ccc(OC)c(OC)c3C)n2)cc1,EC50,> 10 µM
